According to patent US20060117411A1, “Enhancing plant pathogen resistance via increasing BiP levels” (priority 1998, published 2006):

What was measured:
[1] = test system: β-1,3-glucanase mRNA; experiment: Tunicamycin treatment of tobacco protoplasts, Northern blot of β-1,3-glucanase; format: cell-based, Nicotiana tabacum; conditions: tunicamycin 20 μg/mL
Protocol: To compare the CDE- and UPR-mediated induction of BiP, we wanted to test if both stimuli are additive. […] This is not surprising as protoplasts are prepared with CDEs. These protoplasts were then treated with tunicanycin, to superimpose the UPR onto the CDE response. […] The additional ER stress could trap BiP in malfolded protein complexes, thus making it unavailable to promote PR protein synthesis on the rough ER.
During prolonged incubation times, transcript levels encoding secretory proteins recover to almost normal (initial) values again. Identical results were obtained with other transcripts encoding the secretory proteins acidic chitinase and basic chitinase present in tobacco protoplasts, showing that the effect is not restricted to β-1,3-glucanase (data not shown).
(§1) Protoplasts RNAs were extracted as described by Jones et al., (1985). Leaves were ground in frozen liquid nitrogen and transferred to NTES buffer (0.1 M NaCl, 10 mM Tris pH 7.5, 1 mM EDTA, 1% SDS). Protoplasts samples were frozen in liquid nitrogen and thawed in NTES buffer. RNA was extracted after adding an equal volume of phenol/chloroform. Ethanol precipitation was carried out after incubation at −20° C. for 16 hours. The pellet was resuspended and RNA was selectively precipitated with LiCl (2M LiCl) for 2 hours on ice. The pellet was washed with 70% ethanol and resuspended in diethyl pyrocarbonate-treated water. […]

[2] = test system: BiP gene expression; experiment: Leaf treatment of tobacco plants, Northern blot of BiP transcripts in treated (local) and untreated (systemic) leaves; format: in vivo, Nicotiana tabacum; conditions: after 3 and 8 hours; tunicamycin 0.02 mM
From the text: We have shown that treatment of tobacco plants with cell wall-degrading enzymes (CDE) leads to the rapid induction of β-1,3-glucanase and other PR genes, both locally and systemically (Vidal et al, 1997). […] We used a commercial preparation of fungal CDEs instead of custom made Erwinia-derived hydrolases to increase reproducibility. […] This induction was observed locally as well systemically with the same timing and intensity. β-1,3-glucanase transcript accumulation is detectable only after 4 hours of incubation and reaches its plateau after 8 hours as described previously (Vidal et al, 1997). Whereas BiP induction is transient, β-1,3-glucanase mRNA levels continue to be high after prolonged incubation times (24-48 hours). […] The signal involved in the systemic response of BiP gene expression must therefore be transported very rapidly from the local leaf to the distal leaves.
Even though BiP induction occurs prior to β-1,3 glucanase induction, we cannot rule out that other, as yet unidentified defence related proteins are induced more rapidly and perhaps before BiP in our experimental system. If this were the case, it would still be possible that the rapid induction of BiP is the result of a feedback mechanism due to ER stress resulting from the increased synthesis of proteins on the rough ER, the unfolded protein response (UPR). […]

[3] = test system: BiP mRNA; experiment: Treatment of Arabidopsis WT and saiI mutant, Northern blot of BiP; format: in vivo, Arabidopsis thaliana; conditions: Arabidopsis saiI mutant vs wild-type, SA 5 mM
Protocol: WT and saiI mutants of the same ecotype were treated with cell wall-degrading enzymes and incubated for 6 hours. As a control (con), leaves were mock-infected with H2O. Total RNA was extracted and Northern blot analysis was performed for BiP and a hevein-like protein (Hel) which is known to be induced by CDEs of Erwinia carotovora (Vidal et al, in preparation).
(§2) WT and saiI mutants of the same ecotype were sprayed with SA (5 mM) and incubated in the light. Total RNA was extracted and probed with the PR1 and BiP gene from Arabidopsis. The induction of PR1 in WT Arabidopsis was detected 3 hours after SA-treatment and continued to increase until 8 hours (FIG. 10). […] As in tobacco plants, BiP mRNA levels increase prior to PR1 transcripts in SA treated Arabidopsis plants (FIG. 10) and diminish after prolonged incubations (data not shown).
(§3) Plants of Nicotiana tabacum cultivar Petit Havana (Maliga et al., 1973) were axenically grown in MS medium (Murashige and Skoog, 1962), 2% Sucrose in a temperature controlled room at 25° C. with a 16 h day/[…] regime and a light irradiance of 200 μE.m^−2.s^−1. Arabidopsis thaliana Nössen WT and saiI plants (Shah et al., 1997) were grown under the same conditions.
Protoplasts RNAs were extracted as described by Jones et al., (1985). […]

[4] = test system: PR1 mRNA; experiment: SA spraying of Arabidopsis WT and saiI mutant, Northern blot of PR1; format: in vivo, Arabidopsis thaliana; conditions: SA 5 mM
Protocol: as §2, §3
Plants were sprayed with 5 mM SA and 0.5% Tween 20 from all sides, ensuring contact on both sides of each leaf of the plant. Typically, 10 ml of the SA solution was sprayed onto each plant. Plants were then transferred from the 16 h day/8 h night regime to constant light regime.
as §1, with “water. Gel blots of total RNA denatured in formamide and formaldehyde were prepared. RNA was blotted onto Hybond-N membrane (Amersham Corp), as described by the manufacturer.” for “water.”

## tunicamycin
[1]; protoplasts
  transcript level of β-1,3-glucanase during UPR-induced BiP transcription (time course): rapidly decreases
[1]; 2.5 hrs
  β1,3-glucanase expression in protoplasts: inhibited
[2]
  BiP mRNA levels in the treated leaf: strong increase

## O=C(O)c1ccccc1O [SA, Salicylic Acid]
[3]
  BiP mRNA levels in saiI mutants during SA-treatment: exactly the same induction pattern as in the wild-type plant
[4]; Arabidopsis saiI mutant
  PR1 induction during SA-treatment in saiI mutant: completely abolished
[4]; WT Arabidopsis, light
  time after SA-treatment at which induction of PR1 is detected: 3 h
  time until which PR1 induction continues to increase: ≤ 8 h
